The source of these data is US9024041B2, “P38 MAP kinase inhibitors” (Respivert Ltd., priority 2010, dated 2015).

The test system of series [1] is Poly I:C-induced ICAM-1 expression in BEAS2B cells. Put plainly: Poly I:C-induced ICAM-1 induction in BEAS2B cells. It is filed as cell-based. The conditions noted are these: Homo sapiens, BEAS-2B, poly I:C 1 μg/mL, 18 hr, read-out: PolyI:C/ICAM1 IC50 BEAS2B. The method, boiled down: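 Human bronchial epithelial BEAS2B cells were pre-incubated with compound for 2 h, then transfected with poly I:C at 1 μg/mL. Surface ICAM-1 was measured 18 h later by cell-based ELISA (OD450–655), normalised to crystal-violet cell number (OD595). IC50 was taken from the concentration–response curve against vehicle.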

For series [2], the system named is Differentiated U937 cells. Put plainly: MTT assay: cell viability on exposure to test compounds. Format: cell-based, human. The conditions noted are these: percentage loss of cell viability vs vehicle, 1 μg/mL; for MTT Assay (Viability) 4 h d-U937: 5% FCS; for MTT Assay (Viability) 24 h d-U937: 10% FCS. The gist of the method: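 Differentiated U937 cells were pre-incubated with compound for either 4 h in 5% FCS or 24 h in 10% FCS, then given MTT for 1 h. Formazan was dissolved in DMSO and read at 550 nm. Viability loss is expressed as % versus 0.5% DMSO vehicle, so an apparent gain appears as a negative value.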
For orientation: Formazan colour is commonly taken as a measure of viable cells.

Series [3] concerns LPS-induced TNFα release in THP-1 cells. Put plainly: LPS-induced TNFα release in THP-1 cells. It is filed as cell-based. The conditions noted are these: Homo sapiens, 3 μg/mL LPS, 4 hr. The method, boiled down:
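Human monocytic cells were stimulated with 3 μg/mL E. coli LPS for 4 hr. Supernatant TNFα was measured by sandwich ELISA. Inhibition was taken relative to vehicle control, and IC50 derived from the concentration-response curve.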

Series [4] concerns the target T1, Recombinant, phosphorylated p38 MAPKγ (MAPK12:Invitrogen) (Homo sapiens, UniProt P53778).
T1 construct: purchased Invitrogen
T1 sequence (P53778 1-367): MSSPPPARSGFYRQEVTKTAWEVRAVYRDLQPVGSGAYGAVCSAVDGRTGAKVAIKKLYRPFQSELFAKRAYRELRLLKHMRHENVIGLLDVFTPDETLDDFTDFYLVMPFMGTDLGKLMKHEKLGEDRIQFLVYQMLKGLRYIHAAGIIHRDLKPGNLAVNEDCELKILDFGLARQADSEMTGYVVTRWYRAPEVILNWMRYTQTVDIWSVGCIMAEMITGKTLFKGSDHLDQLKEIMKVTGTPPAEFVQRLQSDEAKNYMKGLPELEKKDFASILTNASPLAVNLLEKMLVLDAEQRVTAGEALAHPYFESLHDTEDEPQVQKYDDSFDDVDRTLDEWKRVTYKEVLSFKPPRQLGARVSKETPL
Put plainly: p38 MAPKγ enzyme inhibition assay (FRET, Z-LYTE). Format: biochemical. To be noted: 2 hr pre-incubation, ATP 100 μM; read-out: Enzyme Inhibition IC50 p38γ.

Series [5] addresses T2, p38 MAPKα isoform (MAPK14: Invitrogen) (Homo sapiens, UniProt Q16539).
T2 construct: purchased Invitrogen
Put plainly: p38 MAPKα enzyme inhibition assay (FRET, Z-LYTE, via MAPKAP-K2 activation). Format: biochemical. To be noted: 2 hr pre-incubation, ATP 10.0 μM; read-out: Enzyme Inhibition IC50 p38α.

Series [6] has as its system LPS-induced TNFα release in d-U937 cells. Put plainly: LPS-induced TNFα release in d-U937 cells. The conditions noted are these: Homo sapiens, dU937, 4 h; read-out: LPS/TNFα REC50 d-U937. It is filed as cell-based. The gist of the method: (§1)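 U937 cells differentiated with PMA (100 ng/mL, 48–72 hr), pre-incubated with compound 2 hr, then stimulated with 0.1 μg/mL E. coli O111:B4 LPS for 4 hr. Supernatant TNFα and IL-8 measured by sandwich ELISA; REC50 (TNFα) and IC50 (IL-8 inhibition vs vehicle) taken from concentration-response curves.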

Series [7] concerns LPS-induced neutrophil accumulation in Balb/c mice. The series can be described thus: LPS-induced neutrophil accumulation in mice. Format: in vivo. The conditions noted are these: for % inhibition of Influx / Neutrophil numbers in BAL: 0.2 mg/mL intra tracheal, 8 h pre-dose before LPS; for inhibitory effects versus neutrophil accumulation into the BALF (in words): dosed 8 hr prior to LPS challenge. Here is the method:
LPS-Induced Neutrophil Accumulation in Mice
Non-fasted Balb/c mice were dosed by the intra tracheal route with either vehicle, or the test substance at the indicated times (within the range 2-12 hr) before stimulation of the inflammatory response by application of an LPS challenge. At T=0, mice were placed into an exposure chamber and exposed to LPS. After a further 8 hr the animals were anesthetized, their tracheas cannulated and BALF extracted by infusing and then withdrawing from their lungs 1.0 mL of PBS via the tracheal catheter. Total and differential white cell counts in the BALF samples were measured using a Neubaur haemocytometer. Cytospin smears of the BALF samples were prepared by centrifugation at 200 rpm for 5 min at RT and stained using a DiffQuik stain system (Dade Behring). Cells were counted using oil immersion microscopy.

Series [8] relates to LPS-induced IL-8 release in d-U937 cells. The series can be described thus: LPS-induced IL-8 release in d-U937 cells. Format: cell-based. The conditions noted are these: Homo sapiens, dU937, 0.1 μg/mL LPS, 4 hr. The gist of the method:
as §1

“Also recorded” adds a separate entry of the source.

T2 sequence (Q16539 whole entry, canonical isoform): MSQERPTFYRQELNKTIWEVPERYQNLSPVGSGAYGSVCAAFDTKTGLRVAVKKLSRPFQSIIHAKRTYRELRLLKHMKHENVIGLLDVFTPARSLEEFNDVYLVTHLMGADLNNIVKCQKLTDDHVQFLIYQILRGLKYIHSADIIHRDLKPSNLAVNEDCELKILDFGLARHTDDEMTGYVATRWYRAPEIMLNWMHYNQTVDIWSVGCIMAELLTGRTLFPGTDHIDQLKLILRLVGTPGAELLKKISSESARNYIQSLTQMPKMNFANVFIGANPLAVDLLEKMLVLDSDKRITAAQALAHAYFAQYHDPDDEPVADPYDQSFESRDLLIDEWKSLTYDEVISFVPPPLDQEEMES

Consider `CC(C)(C)c1cc(NC(=O)Nc2ccc(Oc3ccnc(NC(N)=O)c3)c3ccccc23)n(-c2ccc(S(C)(=O)=O)cc2)n1` [Example 45, 1-(3-tert-butyl-1-(4-(methylsulfonyl)phenyl)-1H-pyrazol-5-yl)-3-(4-((2-ureidopyridin-4-yl)oxy)naphthalen-1-yl)urea], for which the IC50 in series [1] was determined as 30.9 nM; in series [3], 2.2 nM; in series [4] it was 48.7 nM; in series [5], 18.9 nM; in series [8], 0.5 nM. In series [2], the “MTT Assay (Viability) 4 h d-U937” value is −14.4%. For the same compound, the “MTT Assay (Viability) 24 h d-U937” value in series [2] is on record as 13.9%. For the same compound, the EC50 in series [6] turned out to be 0.3 nM. In addition, the “% inhibition of Influx” value in series [7] came to 24%. For the same compound, the “Neutrophil numbers in BAL” value in series [7] is 13.2 ± 2.2 × 10^5/mL. The “inhibitory effects versus neutrophil accumulation into the BALF (in words)” value in series [7] is reported as “inhibitory effects”.
On to `COCC(=O)Nc1cc(Oc2ccc(NC(=O)Nc3cc(C(C)(C)C)nn3-c3ccc(CO)c(Cl)c3)c3ccccc23)ccn1` [Example 13, N-(4-(4-(3-(3-tert-Butyl-1-(3-chloro-4-(hydroxymethyl)phenyl)-1H-pyrazol-5-yl)ureido)naphthalen-1-yloxy)pyridin-2-yl)-2-methoxyacetamide], for which the IC50 in series [1] was determined as 2.3 nM; in series [3] it was 1.3 nM; in series [4] it was 168 nM; in series [5], 10.7 nM; in series [8] it was 8.6 nM. Further, the “MTT Assay (Viability) 4 h d-U937” value in series [2] is reported as −28.5%. Further, the “MTT Assay (Viability) 24 h d-U937” value in series [2] was found to be 27.0%. Further, the EC50 in series [6] was found to be 0.03 nM. Moreover, the “% inhibition of Influx” value in series [7] was 43%. Further, the “Neutrophil numbers in BAL” value in series [7] is reported as 9.9 ± 1.2 × 10^5/mL. Moreover, in series [7], the “inhibitory effects versus neutrophil accumulation into the BALF (in words)” value is “inhibitory effects; also recorded: particularly marked”.
Take `COCC(=O)Nc1cc(Oc2ccc(NC(=O)Nc3cc(C(C)(C)C)nn3-c3ccc(OC)nc3)c3ccccc23)ccn1` [Example 16, N-(4-(4-(3-(3-tert-Butyl-1-(6-methoxypyridin-3-yl)-1H-pyrazol-5-yl)ureido)naphthalen-1-yloxy)pyridin-2-yl)-2-methoxyacetamide]: the IC50 in series [1] is 8.1 nM; in series [3] it was 1.2 nM; in series [4] it was 54.3 nM; in series [5] it was 4.5 nM; in series [8] it was 29.6 nM. For the same compound, in series [2], the “MTT Assay (Viability) 4 h d-U937” value is −16.7%. Also, the “MTT Assay (Viability) 24 h d-U937” value in series [2] is listed as −6.2%. In addition, the EC50 in series [6] turned out to be 1.2 nM. For the same compound, the “% inhibition of Influx” value in series [7] is listed as 55%. Moreover, the “Neutrophil numbers in BAL” value in series [7] is 6.3 ± 1.2 × 10^5/mL. In addition, the “inhibitory effects versus neutrophil accumulation into the BALF (in words)” value in series [7] is recorded as “inhibitory effects; also recorded: particularly marked”.
